This note sets out measurements from US20200079758A1, “[4-(PHENYLSULFONYL)PIPERAZIN-1-YL](1H-1,2,3-TRIAZOL-4-YL)METHANONES” (priority 2016, published 2020).

The structures appear in SMILES notation.

What is called IC50 is the concentration at which inhibition is half-maximal.

The target in this assay is T1, recombinant human AKR1C3 (Homo sapiens, UniProt P42330).
T1 construct: GST (cleaved yes); made in house; host or cells: E. coli
T1 sequence (P42330 1-323): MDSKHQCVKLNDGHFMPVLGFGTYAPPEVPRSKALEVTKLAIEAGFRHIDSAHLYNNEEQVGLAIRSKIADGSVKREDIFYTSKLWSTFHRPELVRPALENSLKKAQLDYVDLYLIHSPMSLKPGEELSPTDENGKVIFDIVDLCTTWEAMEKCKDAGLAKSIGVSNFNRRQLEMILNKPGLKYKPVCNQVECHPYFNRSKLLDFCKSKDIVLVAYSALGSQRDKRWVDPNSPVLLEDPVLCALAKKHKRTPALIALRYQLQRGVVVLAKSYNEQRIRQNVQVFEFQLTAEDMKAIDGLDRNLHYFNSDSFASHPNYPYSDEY
The assay is described as follows: AKR1C3-inhibitory activity assay (generation of Coumberol from Coumberone). Type of assay: biochemical. As to conditions: Coumberone 0.3 μM, NADPH 10 μM, 22° C., typically 90 min, average or median values. How it is done:
The AKR1C3-inhibitory activity of the substances of the present invention was measured in the AKR1C3 assay described in the paragraphs below.
Essentially, the enzyme activity is measured by quantification of the generation of Coumberol from Coumberone (Halim et al. J. AM. CHEM. SOC. 2008, 130:14123-14128 and Yee et al. Proc. Natl. Acad. Sci. USA 2006, 103:13304-13309). In this test, the increase of the highly fluorescent Coumberol by NADPH- (nicotinamide adenine dinucleotide phosphate)-dependent reduction of the non-fluorescent Coumberone by AKR1C3 was determined.
The enzyme used was recombinant human AKR1C3 (Aldo-keto reductase family 1 member C3; GenBank Accession No. NM_003739). This was expressed in E. coli as GST (glutathione S transferase) fusion protein and purified by glutathione Sepharose affinity chromatography. The GST was removed by digestion with thrombin and subsequent size exclusion chromatography (Dufort, I., Rheault, P., Huang, X F., Soucy, P., and Luu-The, V., Endocrinology 140, 568-574 (1999)).
For the assay, 50 nl of a 100-fold concentrated solution of the test substance in DMSO were pipetted into a black low-volume 384-well microtiter plate (Greiner Bio-One, Frickenhausen, Germany), 2.5 μl of a solution of AKR1C3 in assay buffer [50 mM potassium phosphate buffer pH 7, 1 mM DTT, 0.0022% (w/v) Pluronic F-127, 0.01% BSA (w/v) and protease inhibitor cocktail (Complete, EDTA-free Protease Inhibitor Cocktail from Roche)] were added and the mixture was incubated for 15 min to allow pre-binding of the substances to the enzyme prior to the enzyme reaction. The enzyme reaction was then started by addition of 2.5 μl of a solution of NADPH (20 μM→final concentration in 5 μl of assay volume is 10 μM) and Coumberone (0.6 μM→final concentration in 5 μl of assay volume is 0.3 μM) in assay buffer, and the resulting mixture was incubated at 22° C. for the reaction time of typically 90 min. The concentration of the AKR1C3 and the reaction time was adapted to the respective activity of the enzyme preparation and adjusted such that the assay was carried out in the linear range. Typical AKR1C3 concentrations were in the region of 1 nM. The reaction was stopped by addition of 2.5 μl of a stop solution consisting of 3 μM EM-1404 as inhibitor (U.S. Pat. No. 6,541,463) in 50 mM HEPES pH7.5 (3 μM EM-1404→final concentration in 7.5 μl of assay volume is 1 μM). The fluorescence of the Coumberole was then measured at 520 nm (excitation at 380 nm) using a suitable measuring instrument (Pherastar from BMG Labtechnologies). The intensity of the fluorescence was used as a measure of the amount of Coumberole formed and thus of the enzyme activity of AKR1C3. The data were normalized (enzyme reaction without inhibitor=0% inhibition; all other assay components, but no enzyme=100% inhibition).
As to `C[C@@H]1CN(S(=O)(=O)c2ccccc2C#N)[C@@H](C)CN1C(=O)c1cnn[nH]1` (stereo in doubt) [Example 14, 2-{[(2S,5R)-2,5-dimethyl-4-(1H-1,2,3-triazol-5-ylcarbonyl)piperazin-1-yl]sulfonyl}benzonitrile], the 50% inhibitory concentration (IC50) amounted to 439 nM.
As for `C[C@@H]1CN(C(=O)c2cnn[nH]2)[C@@H](C)CN1S(=O)(=O)c1ccccc1` [Example 1, [(2S,5R)-2,5-dimethyl-4-(phenylsulfonyl)piperazin-1-yl](1H-1,2,3-triazol-5-yl)methanone], the figure is 2 nM.
`C[C@@H]1CN(C(=O)c2cnn[nH]2)[C@@H](C)CN1S(=O)(=O)c1cc(F)cc(F)c1` [Example 3, {(2S,5R)-4-[(3,5-difluorophenyl)sulfonyl]-2,5-dimethylpiperazin-1-yl}(1H-1,2,3-triazol-5-yl)methanone]: the concentration for half-maximal inhibition (IC50) came out at 1 nM.
With `C[C@@H]1CN(C(=O)c2cnn[nH]2)[C@@H](C)CN1S(=O)(=O)c1cc(Cl)ccc1Cl` [Example 4, {(2S,5R)-4-[(2,5-dichlorophenyl)sulfonyl]-2,5-dimethylpiperazin-1-yl}(1H-1,2,3-triazol-5-yl)methanone], the IC50 was determined as 2 nM.
Take `C[C@@H]1CN(C(=O)c2cnn[nH]2)[C@@H](C)CN1S(=O)(=O)c1ccccc1F` [Example 5, {(2S,5R)-4-[(2-fluorophenyl)sulfonyl]-2,5-dimethylpiperazin-1-yl}(1H-1,2,3-triazol-5-yl)methanone]: the concentration for half-maximal inhibition (IC50) was found to be 2 nM.
As to `C[C@@H]1CN(C(=O)c2cnn[nH]2)[C@@H](C)CN1S(=O)(=O)c1ccccc1C(F)(F)F` [Example 6, [(2S,5R)-2,5-dimethyl-4-{[2-(trifluoromethyl)phenyl]sulfonyl}piperazin-1-yl](1H-1,2,3-triazol-5-yl)methanone], the IC50 turned out to be 2 nM.
In the case of `C[C@@H]1CN(C(=O)c2cnn[nH]2)[C@@H](C)CN1S(=O)(=O)c1cccc(F)c1` [Example 7, sodium 5-({(2S,5R)-4-[(3-fluorophenyl)sulfonyl]-2,5-dimethylpiperazin-1-yl}carbonyl)-1,2,3-triazol-1-ide], the IC50 came to 1 nM.
As for `C[C@@H]1CN(C(=O)c2c[nH]nn2)[C@@H](C)CN1S(=O)(=O)c1cccc(S(F)(F)(F)(F)F)c1` [Example 8, [(2S,5R)-2,5-dimethyl-4-{[3-(pentafluoro-λ^6-sulfanyl)phenyl]sulfonyl}piperazin-1-yl](1H-1,2,3-triazol-4-yl)methanone], the figure is 1 nM; as for `C[C@@H]1CN(C(=O)c2c[nH]nn2)[C@@H](C)CN1S(=O)(=O)c1cccc(Cl)c1F` [Example 9, {(2S,5R)-4-[(3-chloro-2-fluorophenyl)sulfonyl]-2,5-dimethylpiperazin-1-yl}(1H-1,2,3-triazol-4-yl)methanone], 1 nM.
With `C[C@@H]1CN(C(=O)c2c[nH]nn2)[C@@H](C)CN1S(=O)(=O)c1ccc(Cl)s1` [Example 10, {(2S,5R)-4-[(5-chlorothiophen-2-yl)sulfonyl]-2,5-dimethylpiperazin-1-yl}(1H-1,2,3-triazol-4-yl)methanone], the IC50 is 3 nM.
With `C[C@@H]1CN(C(=O)c2c[nH]nn2)[C@@H](C)CN1S(=O)(=O)c1cccnc1` [Example 11, [(2S,5R)-2,5-dimethyl-4-(pyridin-3-ylsulfonyl)piperazin-1-yl](1H-1,2,3-triazol-5-yl)methanone], the IC50 is 77 nM.
On to `C[C@@H]1CN(C(=O)c2c[nH]nn2)[C@@H](C)CN1S(=O)(=O)c1cccc(C(F)(F)F)c1` [Example 12, [(2S,5R)-2,5-dimethyl-4-{[3-(trifluoromethyl)phenyl]sulfonyl}piperazin-1-yl](1H-1,2,3-triazol-4-yl)methanone], for which the IC50 came out at 1 nM.
As to `C[C@@H]1CN(C(=O)c2c[nH]nn2)[C@@H](C)CN1S(=O)(=O)c1cc(F)ccc1F` [Example 13, {(2S,5R)-4-[(2,5-difluorophenyl)sulfonyl]-2,5-dimethylpiperazin-1-yl}(1H-1,2,3-triazol-4-yl)methanone], the IC50 was determined as 2 nM.
On to `C[C@@H]1CN(C(=O)c2cnn[nH]2)[C@@H](C)CN1S(=O)(=O)c1ccc(C#N)cc1` [Example 15, 4-{[(2R,5S)-2,5-dimethyl-4-(1H-1,2,3-triazol-5-ylcarbonyl)piperazin-1-yl]sulfonyl}benzonitrile], for which the IC50 was 55 nM.
Consider `COc1ccccc1S(=O)(=O)N1C[C@H](C)N(C(=O)c2cnn[nH]2)C[C@H]1C` [Example 16, {(2S,5R)-4-[(2-methoxyphenyl)sulfonyl]-2,5-dimethylpiperazin-1-yl}(1H-1,2,3-triazol-5-yl)methanone], for which the IC50 stood at 4 nM.
Turning to `C[C@@H]1CN(C(=O)c2cnn[nH]2)[C@@H](C)CN1S(=O)(=O)c1ccc(O)cc1` [Example 17, {(2S,5R)-4-[(4-hydroxyphenyl)sulfonyl]-2,5-dimethylpiperazin-1-yl}(1H-1,2,3-triazol-5-yl)methanone], the 50% inhibitory concentration (IC50) was determined as 12 nM.
As for `C[C@@H]1CN(S(=O)(=O)c2ccccc2)C[C@H](C)N1C(=O)c1c[nH]nn1` [Example 18, [(2R,6S)-2,6-dimethyl-4-(phenylsulfonyl)piperazin-1-yl](1H-1,2,3-triazol-4-yl)methanone], the half-inhibitory concentration (IC50) came out at 11 nM.
On to `CC1(C)CN(C(=O)c2c[nH]nn2)CCN1S(=O)(=O)c1ccccc1` [Example 19, [3,3-dimethyl-4-(phenylsulfonyl)piperazin-1-yl](1H-1,2,3-triazol-4-yl)methanone], for which the IC50 amounted to 17 nM.
With `CC1(C)CN(C(=O)c2c[nH]nn2)CCN1S(=O)(=O)c1cccc(F)c1` [Example 20, {4-[(3-fluorophenyl)sulfonyl]-3,3-dimethylpiperazin-1-yl}(1H-1,2,3-triazol-4-yl)methanone], the half-maximal inhibitory concentration (IC50) is 11 nM.
As for `CC1(C)CN(C(=O)c2c[nH]nn2)CCN1S(=O)(=O)c1cccc(Cl)c1` [Example 21, {4-[(3-chlorophenyl)sulfonyl]-3,3-dimethylpiperazin-1-yl}(1H-1,2,3-triazol-4-yl)methanone], the 50% inhibitory concentration (IC50) turned out to be 3 nM.
In the case of `Cc1cc(C)cc(S(=O)(=O)N2CCN(C(=O)c3c[nH]nn3)CC2(C)C)c1` [Example 22, {4-[(3,5-dimethylphenyl)sulfonyl]-3,3-dimethylpiperazin-1-yl}(1H-1,2,3-triazol-4-yl)methanone], the half-inhibitory concentration (IC50) amounted to 2 nM.
Consider `CC1(C)CN(C(=O)c2c[nH]nn2)CCN1S(=O)(=O)c1cccc(Br)c1` [Example 23, {4-[(3-bromophenyl)sulfonyl]-3,3-dimethylpiperazin-1-yl}(1H-1,2,3-triazol-4-yl)methanone], for which the IC50 was determined as 2 nM.
As to `CC1(C)CN(C(=O)c2c[nH]nn2)CCN1S(=O)(=O)c1cccc(Cl)c1F` [Example 24, {4-[(3-chloro-2-fluorophenyl)sulfonyl]-3,3-dimethylpiperazin-1-yl}(1H-1,2,3-triazol-4-yl)methanone], the 50% inhibitory concentration (IC50) came out at 8 nM.
In the case of `CC1(C)CN(C(=O)c2c[nH]nn2)CCN1S(=O)(=O)c1cc(Cl)ccc1Cl` [Example 25, {4-[(2,5-dichlorophenyl)sulfonyl]-3,3-dimethylpiperazin-1-yl}(1H-1,2,3-triazol-4-yl)methanone] it was 7 nM; in that of `CC1(C)CN(C(=O)c2c[nH]nn2)CCN1S(=O)(=O)c1cc(Cl)cc(Cl)c1` [Example 26, {4-[(3,5-dichlorophenyl)sulfonyl]-3,3-dimethylpiperazin-1-yl}(1H-1,2,3-triazol-4-yl)methanone], 4 nM.
As for `CC1(C)CN(C(=O)c2c[nH]nn2)CCN1S(=O)(=O)c1ccccc1C(F)(F)F` [Example 27, (3,3-dimethyl-4-{[2-(trifluoromethyl)phenyl]sulfonyl}piperazin-1-yl)(1H-1,2,3-triazol-4-yl)methanone], the figure is 7 nM.
